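The compound was tested at five concentrations on cells cultured in 96-well plates, with a 48-hour exposure period. TGI denotes the concentration required for complete inhibition of growth.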
Experiments:
Experiment in all cases: inhibition of tumour cell growth, NCI panel, 48 h
[1] = system: U251 CNS
[2] = system: OVCAR-4 ovarian
[3] = system: 786-0 renal
[4] = system: HS 578T breast
[5] = system: A549 NSCLC
[6] = system: NCI-H522 lung
[7] = system: PC-3 prostate
[8] = system: K-562 leukemia
[9] = system: COLO 205 colon
[10] = system: TK-10 renal
[11] = system: SK-MEL-28 melanoma
[12] = system: ACHN renal
[13] = system: EKVX NSCLC
[14] = system: SN12C renal
[15] = system: SF-268 CNS
[16] = system: CCRF-CEM leukemia
[17] = system: BT-549 breast
[18] = system: MDA-N
[19] = system: HOP-62 NSCLC
[20] = system: MALME-3M melanoma
[21] = system: MDA-MB-231 breast
[22] = system: RXF 393 renal
[23] = system: SR leukemia
[24] = system: M14 melanoma
[25] = system: KM12 colon
[26] = system: SW-620 colon
[27] = system: SNB-19 CNS
[28] = system: OVCAR-8 ovarian
[29] = system: NCI-H226 lung
[30] = system: NCI-H23 lung
[31] = system: SK-MEL-5 melanoma
[32] = system: HL-60(TB) leukemia
[33] = system: OVCAR-3 ovarian
[34] = system: MCF7 breast
[35] = system: DU-145 prostate
[36] = system: HOP-92 NSCLC
[37] = system: UACC-257 melanoma
[38] = system: T-47D breast
[39] = system: IGROV1 ovarian
[40] = system: HT29 colon
[41] = system: NCI/ADR-RES ovarian
[42] = system: NCI-H460 lung
[43] = system: LOX IMVI melanoma
[44] = system: SF-295 CNS
[45] = system: MDA-MB-435
[46] = system: SK-OV-3 ovarian
[47] = system: HCC-2998 colon
[48] = system: HCT-116 colon
[49] = system: CAKI-1 renal
[50] = system: SNB-75 CNS
[51] = system: OVCAR-5 ovarian
[52] = system: UO-31 renal
[53] = system: HCT-15 colon
[54] = system: MOLT-4 leukemia
[55] = system: UACC-62 melanoma
[56] = system: A498 renal
[57] = system: SK-MEL-2 melanoma
[58] = system: SF-539 CNS
[59] = system: RPMI-8226 leukemia

For `CC(=O)O[C@H]1CC[C@@]2(C)C(=CC[C@@H]3[C@@H]2CC[C@]2(C)c4c(cc(C#N)c(=N)n4C(C)=O)C[C@@H]32)C1`, the TGI [1] was > 100 µM, the TGI [2] was 39.4 µM and the TGI [3] was 58.3 µM. For the same compound, the TGI [4] was 59.6 µM, the TGI [5] was 64.8 µM and the TGI [6] was 35.9 µM. For the same compound, the TGI [7] was 54.6 µM, the TGI [8] was > 100 µM and the TGI [9] was 35.7 µM. For the same compound, the TGI [10] was 66.8 µM, the TGI [11] was 37.3 µM and the TGI [12] was 47.8 µM. The TGI [13] was 43.2 µM, the TGI [14] was 44.8 µM and the TGI [15] was 62.7 µM. The TGI [16] was 23.2 µM, the TGI [17] was 34.8 µM and the TGI [18] was 52.9 µM. The TGI [19] was 49.4 µM, the TGI [20] was 31.8 µM and the TGI [21] was 77.9 µM. The TGI [22] was 66.5 µM, the TGI [23] was 61.2 µM and the TGI [24] was 32.5 µM. The TGI [25] was 32.8 µM, the TGI [26] was 47.5 µM and the TGI [27] was 89 µM. The TGI [28] was 37.6 µM, the TGI [29] was 72.8 µM and the TGI [30] was 32.1 µM. For the same compound, the TGI [31] was 29.7 µM, the TGI [32] was 36 µM and the TGI [33] was 34.4 µM. For the same compound, the TGI [34] was 47.2 µM, the TGI [35] was 79.3 µM and the TGI [36] was 59.8 µM. The TGI [37] was 33.9 µM, the TGI [38] was 46.9 µM and the TGI [39] was 53.3 µM. The TGI [40] was 43.5 µM, the TGI [41] was 39.6 µM and the TGI [42] was 30.3 µM. For the same compound, the TGI [43] was 30.8 µM, the TGI [44] was 29.6 µM and the TGI [45] was 38.5 µM. It also gave a TGI [46] of 34.5 µM, a TGI [47] of 41.9 µM and a TGI [48] of 28.5 µM. It also gave a TGI [49] of 95.8 µM, a TGI [50] of 44.9 µM and a TGI [51] of 74.7 µM. For the same compound, the TGI [52] was 52.8 µM, the TGI [53] was 29.4 µM and the TGI [54] was 35.8 µM. The TGI [55] was 29.7 µM and the TGI [56] was 88.7 µM.

With `COC(=O)c1ccc(CCc2cc(O)c(Br)cc2O)cc1` the TGI [1] was 25.8 µM, the TGI [2] was 23.2 µM and the TGI [3] was 27.5 µM. For the same compound, the TGI [4] was > 100 µM, the TGI [5] was 50.5 µM and the TGI [6] was 12.3 µM. The TGI [7] was 20.6 µM, the TGI [9] was 27.3 µM and the TGI [10] was 27.6 µM. For the same compound, the TGI [11] was 34.4 µM, the TGI [12] was 25.9 µM and the TGI [13] was 31.3 µM. For the same compound, the TGI [14] was 28.3 µM, the TGI [15] was 34.1 µM and the TGI [16] was 5.78 µM. It also gave a TGI [17] of 15.8 µM, a TGI [18] of 30 µM and a TGI [19] of 32.2 µM. It also gave a TGI [20] of 32.4 µM, a TGI [21] of 29 µM and a TGI [22] of 32.9 µM. For the same compound, the TGI [23] was 14.4 µM, the TGI [24] was 29 µM and the TGI [57] was 39.1 µM. For the same compound, the TGI [25] was > 55.3 µM, the TGI [26] was 30.5 µM and the TGI [27] was 33.1 µM. It also gave a TGI [28] of 30.9 µM, a TGI [29] of 55.1 µM and a TGI [30] of 15.4 µM. It also gave a TGI [31] of 23.7 µM, a TGI [32] of 4.65 µM and a TGI [33] of 19.8 µM. For the same compound, the TGI [34] was 28.1 µM, the TGI [35] was 27.5 µM and the TGI [36] was 28.2 µM. It also gave a TGI [37] of 30.9 µM, a TGI [38] of 51.1 µM and a TGI [39] of 28.5 µM. For the same compound, the TGI [40] was 32.8 µM, the TGI [41] was 43.2 µM and the TGI [42] was 33.3 µM. For the same compound, the TGI [43] was 27.2 µM, the TGI [58] was 20.7 µM and the TGI [44] was 28 µM. For the same compound, the TGI [45] was 22.6 µM, the TGI [46] was > 62.5 µM and the TGI [47] was 32.9 µM. For the same compound, the TGI [48] was 14.3 µM, the TGI [49] was 23.2 µM and the TGI [50] was > 59.6 µM. It also gave a TGI [51] of 33.8 µM, a TGI [59] of 92.2 µM and a TGI [52] of 18.1 µM. For the same compound, the TGI [53] was 26.1 µM, the TGI [54] was 6.65 µM and the TGI [55] was 27.1 µM. It also gave a TGI [56] of 40.7 µM.
